Data reported in US20100311729A1, “Substituted imidazopyridazines and pyrrolopyrimidines as lipid kinase inhibitors” (priority 2007, published 2010).

What was measured:
Assay type in all cases: biochemical
[1] = target: T1, PI3K alfa (Homo sapiens, UniProt P42336); test: PI3 kinase assay (Kinase-Glo luminescence), PI3K alfa; details: Enzymatic Data; read-out: PI3K alfa IC50 [umol]
T1 construct: for the p110-a subunit (with a deletion of the first 20 amino acids); His tag (C); made in house; host or cells: baculovirus; Tn5 (Trichoplusia ni) or TiniPro insect cells
T1 sequence (P42336 with tags, fused parts or gaps limits assumed): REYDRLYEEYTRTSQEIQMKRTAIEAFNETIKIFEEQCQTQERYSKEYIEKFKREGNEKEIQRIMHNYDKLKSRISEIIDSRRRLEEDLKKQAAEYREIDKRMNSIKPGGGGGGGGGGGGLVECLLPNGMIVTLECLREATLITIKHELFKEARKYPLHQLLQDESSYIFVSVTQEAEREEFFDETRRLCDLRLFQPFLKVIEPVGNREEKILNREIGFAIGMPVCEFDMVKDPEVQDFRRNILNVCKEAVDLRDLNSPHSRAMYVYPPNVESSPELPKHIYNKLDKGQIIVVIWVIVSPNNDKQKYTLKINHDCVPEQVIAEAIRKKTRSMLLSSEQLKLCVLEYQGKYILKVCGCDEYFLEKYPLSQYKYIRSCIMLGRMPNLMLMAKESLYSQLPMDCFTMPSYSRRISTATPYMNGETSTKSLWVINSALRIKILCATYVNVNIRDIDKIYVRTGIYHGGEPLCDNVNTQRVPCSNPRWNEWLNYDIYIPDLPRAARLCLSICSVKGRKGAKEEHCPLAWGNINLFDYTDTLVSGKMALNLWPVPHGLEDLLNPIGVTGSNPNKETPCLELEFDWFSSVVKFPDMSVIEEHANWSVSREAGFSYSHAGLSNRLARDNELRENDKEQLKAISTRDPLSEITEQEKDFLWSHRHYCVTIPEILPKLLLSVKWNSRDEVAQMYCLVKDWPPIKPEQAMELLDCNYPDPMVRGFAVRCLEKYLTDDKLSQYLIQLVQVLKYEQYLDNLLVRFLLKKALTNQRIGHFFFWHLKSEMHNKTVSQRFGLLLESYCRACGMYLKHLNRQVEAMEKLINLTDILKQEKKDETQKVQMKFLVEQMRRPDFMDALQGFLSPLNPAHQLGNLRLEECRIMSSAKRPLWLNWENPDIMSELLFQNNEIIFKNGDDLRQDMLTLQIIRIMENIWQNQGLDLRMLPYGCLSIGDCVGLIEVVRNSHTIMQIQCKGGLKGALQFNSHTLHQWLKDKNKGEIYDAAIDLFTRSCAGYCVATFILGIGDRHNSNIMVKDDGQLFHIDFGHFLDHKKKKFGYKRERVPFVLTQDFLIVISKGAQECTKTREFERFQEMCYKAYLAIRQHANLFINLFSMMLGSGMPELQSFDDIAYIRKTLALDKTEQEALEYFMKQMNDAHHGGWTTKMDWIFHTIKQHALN
Description: (§1) In a more preferred assay, the kinase reaction is performed in a final volume of 10 μL per well of a low volume non binding CORNING, 384 well black plate (Cat. No. #3676). The final concentrations of ATP and phosphatidyl inositol (PI) in the assay are 1 μM and 10 μg/mL respectively. The reaction is started by the addition of ATP.
(§2) The components of the assay are added per well as follows:
(§3) 50 nL test compounds in 90% DMSO per well, in columns 1-20, 8 concentrations (1/3 and 1/3.33 serial dilution step) in single. • Low control: 50 nL of 90% DMSO in half the wells of columns 23-24 (0.45% in final). • High control: 50 nL of reference compound (e.g. compound of Example 7 in WO 2006/122806, incorporated by reference hereinin that regard) in the other half of columns 23-24 (2.5 μM in final). • Standard: 50 nL of reference compound as just mentioned diluted as the test compounds in columns 21-22 • 20 mL ‘buffer’ are prepared per assay: • 200 μL of 1M TRIS HCl pH7.5 (10 mM in final) • 60 μL of 1M MgCl2 (3 mM in final) • 500 μL of 2M NaCl (50 mM in final) • 100 μL of 10% CHAPS (0.05% in final) • 200 μL of 100 mM DTT (1 mM in final) • 18.94 mL of nanopure water • 10 mL ‘PI’ are prepared per assay: • 200 μL of 1 mg/ml L-alpha-Phosphatidylinositol (Liver Bovine, Avanti Polar Lipids Cat. No. 840042C MW=909.12) prepared in 3% OctylGlucoside (10 μg/ml in final) • 9.8 mL of ‘buffer’ • 10 mL ‘ATP’ are prepared per assay: • 6.7 μL of 3 mM stock of ATP giving a final concentration of 1 μM per well • 10 mL of ‘buffer’ • 2.5 mL of each PI3K construct are prepared per assay in ‘PI’ with the following final concentration : • 10 nM PI3K alfa B-1075 • 25 nM beta BV-949 • 10 nM delta BV-1060 • 150 nM gamma BV-950 • 5 μL of ‘PI/PI3K’ are added per well. • 5 μl ‘ATP’ are added per well to start the reaction. • The plates are then incubated at room temperature for 60 minutes (alfa, beta, delta) or 120 minutes (gamma). • The reaction is terminated by the addition of 10 μL Kinase-Glo (Promega Cat. No. #6714). • The assay plates are read after 10 minutes in Synergy 2 reader (BioTek, Vermont USA) with an integration time of 100 milliseconds and sensitivity set to 191. • Output : The High control is around 60'000 counts and the Low control is 30'000 or lower • This luminescence assay gives a useful Z′ ratio between 0.4 and 0.7
(§4) […] is determined by a four parameter curve fitting routine that comes aloneg with “excel fit”. A 4 Parameter logistic equation is used to calculate IC50 values (IDBS XLfit) of the percentage inhibition of each compound at 8 concentrations (usually 10, 3.0, 1.0, 0.3, 0.1, 0.030, 0.010 and […]). Alternatively, IC50 values are calculated using idbsXLfit model 204, which is a 4 parameter logistic model.
(§5) Testing with the following kinases in the test system mentioned above, with the kinases given in the following tables, the following IC 50 data can be obtained: […]

[2] = target: T2, PI3K beta (Homo sapiens, UniProt P42338); test: PI3 kinase assay (Kinase-Glo luminescence), PI3K beta; details: Enzymatic Data; read-out: PI3K beta IC50 [umol]
T2 construct: for the full-length p110-b subunit are generated and fused by overlapping PCR; His tag (C); made in house; host or cells: baculovirus; Tn5 (Trichoplusia ni) or TiniPro insect cells
T2 sequence (P42338 with tags, fused parts or gaps limits assumed): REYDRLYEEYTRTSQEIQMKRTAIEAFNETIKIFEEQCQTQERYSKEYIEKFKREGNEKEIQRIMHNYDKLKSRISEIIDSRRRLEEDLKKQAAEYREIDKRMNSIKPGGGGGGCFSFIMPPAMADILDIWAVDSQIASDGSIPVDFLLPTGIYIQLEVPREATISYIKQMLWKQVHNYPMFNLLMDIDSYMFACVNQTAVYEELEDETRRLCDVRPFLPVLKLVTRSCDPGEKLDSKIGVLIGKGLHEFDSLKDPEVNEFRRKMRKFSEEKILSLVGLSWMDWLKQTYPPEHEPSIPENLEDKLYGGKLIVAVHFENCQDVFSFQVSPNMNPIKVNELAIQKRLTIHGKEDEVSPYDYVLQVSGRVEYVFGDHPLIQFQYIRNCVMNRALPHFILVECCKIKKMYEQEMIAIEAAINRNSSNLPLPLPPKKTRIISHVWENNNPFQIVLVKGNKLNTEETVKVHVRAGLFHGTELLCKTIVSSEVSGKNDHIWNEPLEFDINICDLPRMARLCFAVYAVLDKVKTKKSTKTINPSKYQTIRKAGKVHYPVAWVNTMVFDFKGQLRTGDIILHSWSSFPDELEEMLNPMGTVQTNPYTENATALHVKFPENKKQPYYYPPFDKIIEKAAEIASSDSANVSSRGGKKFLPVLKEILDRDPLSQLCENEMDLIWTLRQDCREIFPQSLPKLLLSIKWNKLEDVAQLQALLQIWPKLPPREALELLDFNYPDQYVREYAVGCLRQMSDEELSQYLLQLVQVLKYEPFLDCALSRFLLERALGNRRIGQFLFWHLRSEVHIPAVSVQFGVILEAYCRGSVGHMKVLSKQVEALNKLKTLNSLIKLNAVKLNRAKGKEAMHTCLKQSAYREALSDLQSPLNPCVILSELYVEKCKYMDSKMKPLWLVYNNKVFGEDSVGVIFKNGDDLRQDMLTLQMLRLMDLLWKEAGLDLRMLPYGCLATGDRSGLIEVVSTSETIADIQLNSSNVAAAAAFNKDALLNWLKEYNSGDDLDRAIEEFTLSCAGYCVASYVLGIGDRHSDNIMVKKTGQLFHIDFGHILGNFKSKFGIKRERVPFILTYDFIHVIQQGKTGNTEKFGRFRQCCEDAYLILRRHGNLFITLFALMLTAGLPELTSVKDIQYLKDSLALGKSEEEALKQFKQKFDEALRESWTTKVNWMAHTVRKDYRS
Description: as §1, §2, §3, §4, §5

[3] = target: T3, PI3K delta (Homo sapiens, UniProt O00329); test: PI3 kinase assay (Kinase-Glo luminescence), PI3K delta; details: Enzymatic Data; read-out: PI3K delta IC50 [umol]
T3 construct: for the full-length p110-d subunit are generated and fused by overlapping PCR; His tag (C); made in house; host or cells: baculovirus; Tn5 (Trichoplusia ni) or TiniPro insect cells
T3 sequence (O00329 with tags, fused parts or gaps limits assumed): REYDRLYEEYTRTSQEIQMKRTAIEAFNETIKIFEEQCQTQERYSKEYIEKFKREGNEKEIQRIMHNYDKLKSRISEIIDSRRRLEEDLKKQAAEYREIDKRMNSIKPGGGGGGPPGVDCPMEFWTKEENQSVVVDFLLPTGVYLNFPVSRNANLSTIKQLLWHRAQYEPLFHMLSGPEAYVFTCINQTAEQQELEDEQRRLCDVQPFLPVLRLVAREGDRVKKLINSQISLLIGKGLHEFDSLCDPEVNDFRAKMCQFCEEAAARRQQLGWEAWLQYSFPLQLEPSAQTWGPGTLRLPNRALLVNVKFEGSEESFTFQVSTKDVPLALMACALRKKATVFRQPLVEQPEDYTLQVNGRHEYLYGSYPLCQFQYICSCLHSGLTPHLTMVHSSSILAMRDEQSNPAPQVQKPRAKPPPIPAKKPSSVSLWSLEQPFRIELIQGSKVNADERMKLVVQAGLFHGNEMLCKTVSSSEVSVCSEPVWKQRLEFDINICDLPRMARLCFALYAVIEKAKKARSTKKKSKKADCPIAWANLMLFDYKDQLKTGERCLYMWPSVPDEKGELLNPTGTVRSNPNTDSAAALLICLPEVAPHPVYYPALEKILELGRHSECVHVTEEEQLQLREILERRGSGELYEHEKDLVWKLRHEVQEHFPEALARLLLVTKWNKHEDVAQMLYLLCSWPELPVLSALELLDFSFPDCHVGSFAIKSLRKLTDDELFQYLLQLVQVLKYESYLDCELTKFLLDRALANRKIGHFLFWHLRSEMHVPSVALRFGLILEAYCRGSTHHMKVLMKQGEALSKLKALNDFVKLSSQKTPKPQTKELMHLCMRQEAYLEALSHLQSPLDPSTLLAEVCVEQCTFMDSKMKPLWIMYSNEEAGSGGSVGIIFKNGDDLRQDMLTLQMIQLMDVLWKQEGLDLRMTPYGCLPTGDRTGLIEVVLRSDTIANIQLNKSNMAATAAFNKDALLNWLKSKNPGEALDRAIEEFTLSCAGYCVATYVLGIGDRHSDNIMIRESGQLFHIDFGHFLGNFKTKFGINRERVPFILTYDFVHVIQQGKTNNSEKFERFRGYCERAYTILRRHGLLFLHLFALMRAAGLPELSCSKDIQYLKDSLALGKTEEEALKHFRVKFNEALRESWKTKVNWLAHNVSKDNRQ
Description: as §1, §2, §3, §4, §5

[4] = target: T4, PI3K gamma (Homo sapiens, UniProt P48736); test: PI3 kinase assay (Kinase-Glo luminescence), PI3K gamma; details: Enzymatic Data; read-out: PI3K gamma IC50 [umol]
T4 construct: PI3Kγ BV-950 p110g(D144aa)-C-Term His Tag; His tag (C); made in house; host or cells: construct from the Roger Williams lab (MRC LMB) in pVL1393; baculovirus; Tn5 (Trichoplusia ni) or TiniPro insect cells
T4 sequence (P48736 144-1102 limits assumed): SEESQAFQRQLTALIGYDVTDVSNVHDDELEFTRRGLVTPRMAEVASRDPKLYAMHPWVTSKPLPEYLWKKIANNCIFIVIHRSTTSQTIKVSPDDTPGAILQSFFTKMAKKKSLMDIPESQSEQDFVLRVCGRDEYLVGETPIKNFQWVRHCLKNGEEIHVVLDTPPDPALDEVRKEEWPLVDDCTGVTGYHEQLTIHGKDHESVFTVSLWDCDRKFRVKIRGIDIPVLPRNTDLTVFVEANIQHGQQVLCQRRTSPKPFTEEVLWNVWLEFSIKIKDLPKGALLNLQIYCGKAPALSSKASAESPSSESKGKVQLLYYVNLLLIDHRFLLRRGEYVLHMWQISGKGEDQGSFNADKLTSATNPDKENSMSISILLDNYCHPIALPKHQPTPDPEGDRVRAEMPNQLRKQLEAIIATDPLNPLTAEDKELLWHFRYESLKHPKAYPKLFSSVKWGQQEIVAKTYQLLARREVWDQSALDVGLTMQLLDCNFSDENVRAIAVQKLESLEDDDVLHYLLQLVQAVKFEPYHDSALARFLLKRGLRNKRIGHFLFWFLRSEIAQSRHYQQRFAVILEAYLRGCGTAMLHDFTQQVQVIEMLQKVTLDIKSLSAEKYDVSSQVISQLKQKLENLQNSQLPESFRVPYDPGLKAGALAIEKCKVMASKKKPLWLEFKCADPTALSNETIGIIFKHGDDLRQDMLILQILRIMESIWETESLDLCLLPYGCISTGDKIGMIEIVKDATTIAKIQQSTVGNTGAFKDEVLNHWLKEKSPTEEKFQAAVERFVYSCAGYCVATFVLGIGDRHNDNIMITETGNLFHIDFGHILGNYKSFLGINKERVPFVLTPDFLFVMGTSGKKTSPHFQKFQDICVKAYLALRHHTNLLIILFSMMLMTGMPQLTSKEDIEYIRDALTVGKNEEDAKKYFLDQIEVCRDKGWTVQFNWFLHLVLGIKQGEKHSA
Description: as §1, §2, §4

Structure (SMILES) | IC50 [1] [nM] | IC50 [2] [nM] | IC50 [3] [nM] | IC50 [4] [nM]
COc1cc(-c2cnc3ccc(-c4cnc(N)c(C(F)(F)F)c4)nn23)c(F)cc1C(=O)NCCCN1CCOCC1 [Example 159, 4-[6-(6-Amino-5-trifluoro-methyl-pyridin-3-yl)-imidazo [1,2-b]pyridazin-3-yl]-5-fluoro-2-methoxy-N-(3-morpholin-4-yl-propyl)-benzamide] | 18 | 36 | 13 | 617
COc1ccc(-c2ccc3ncc(-c4cnc(N)c(C(F)(F)F)c4)n3n2)cc1 [Example 46, 5-[6-(4-Methoxy-phenyl)-imidazo[1,2 b]pyridazin-3-yl]-3 trifluoro-methyl-pyridin-2-ylamine] | 1620 | 6280 | 2980 | > 9100
COc1ccc(-c2ccc3ncc(-c4cnc(N)c(C(F)(F)F)c4)n3n2)cc1F [Example 48, 5-[6-(3-Fluoro-4-methoxy-phenyl)-imidazo [1,2-b]pyridazin-3-yl]-3-trifluoro-methyl-pyridin-2-ylamine] | 1120 | 6790 | 2440 | > 9100
Nc1ncc(-c2ccc3ncc(-c4ccc(OCCCN5CCOCC5)cc4)n3n2)cc1C(F)(F)F [Example 171, 5-{3-[4-(3-Morpholin-4-yl-propoxy)-phenyl]-imidazo [1,2-b]pyridazin-6-yl}-3-trifluoro-methyl-pyridin-2-ylamine] | 49 | 185 | 61 | 480
Nc1ncc(-c2cnc3ccc(-c4ccc(OCCN5CCCC5=O)c(F)c4)nn23)cc1C(F)(F)F [Example 94, 1-(2-{4-[3-(6-Amino-5-trifluoro-methyl-pyridin-3-yl)-imidazo [1,2-b]pyridazin-6-yl]-2-fluoro-phenoxy}-ethyl)-pyrrolidin-2-one] | 62 | 441 | 146 | 2150
CC(C)(C)OC(=O)NCCOc1ccc(-c2ccc3ncc(-c4cnc(N)c(C(F)(F)F)c4)n3n2)cc1 [Example 73, (2-{4-[3-(6-Amino-5-trifluoro-methyl-pyridin-3-yl)-imidazo [1,2-b]pyridazin-6-yl]-phenoxy}-ethyl)-carbamic acid tert-butyl ester] | 725 | > 9100 | 3950 | > 9100
CC(C)C(=O)NCCOc1ccc(-c2ccc3ncc(-c4cnc(N)c(C(F)(F)F)c4)n3n2)cc1 [Example 86, N-(2-{4-[3-(6-Amino-5-trifluoro-methyl-pyridin-3-yl)-imidazo [1,2-b]pyridazin-6-yl]-phenoxy}-ethyl)-isobutyramide] | 94 | 701 | 97 | 111
COc1cc(-c2ccc3ncc(-c4cnc(N)c(C(F)(F)F)c4)n3n2)ccc1OCCCNC(=O)C(C)C [Example 51] | 92 | 1390 | 886 | 6050
Nc1ncc(-c2ccc3ncc(-c4ccc(OCCn5cccn5)cc4)n3n2)cc1C(F)(F)F [Example 88, 5-{3-[4-(2-Pyrazol-1-yl-ethoxy)-phenyl]-imidazo[1,2-b]pyridazin-6-yl}-3-trifluoro-methyl-pyridin-2-ylamine] | 128 | 993 | 148 | 2430
COc1nc(-c2cnc3ccc(-c4cnc(N)c(C(F)(F)F)c4)nn23)cnc1N [Example 67, 5-[6-(6-Amino-5-trifIuoro-methyl-pyridin-3-yl)-imidazo[1,2-b]pyridazin-3-yl]-3-methoxy-pyrazin-2-ylamine] | 34 | 21 | 85 | 2630
NCC1(COc2ccc(-c3ccc4ncc(-c5cnc(N)c(C(F)(F)F)c5)n4n3)cc2)COC1 [Example 169, 5-{6-[4-(3-Aminomethyl-oxetan-3-ylmethoxy)-phenyl]-imidazo[1,2-b]pyridazin-3-yl}-3-trifluoromethyl-pyridin-2-ylamine] | 45 | 82 | 53 | 324
CNc1ncc(-c2cnc3ccc(-c4cnc(N)c(C(F)(F)F)c4)nn23)cn1 [Example 87, {5-[6-(6-Amino-5-trifluoro-methyl-pyridin-3-yl)-imidazo [1,2-b]pyridazin-3-yl]-pyrimidin-2-yl)-methylamine] | 29 | 10 | 18 | 1230
O=C1CCCN1CCOc1ccc(-c2ccc3ncc(-c4cnc5[nH]ccc5c4)n3n2)cc1 [Example 98, 1-(2-{4-[3-(1H-Pyrrolo[2,3-b]pyridin-5-yl)-imidazo [1,2-b]pyridazin-6-yl]-phenoxy}-ethyl)-pyrrolidin-2-one] | 28 | 2940 | 120 | 2210
COc1ccccc1-c1ccn2ncc(-c3ccc(C(N)=O)cc3)c2n1 [Example 179, 4-[5-(2-Methoxy-phenyl)-pyrazolo[1,5-a]pyrimidin-3-yl]-benzamide] | 3900 | > 9100 | 448 | 2920
NCCCOc1ccc(-c2cnc3ccc(-c4cnc(N)c(C(F)(F)F)c4)nn23)cc1OC(F)(F)F [Example 43, 5-{3-[4-(3-Amino-propoxy)-3-trifluoro-methoxy-phenyl]-imidazo[1,2-b]pyri-dazin-6-yl}-3-trifluoro-methyl-pyridin-2-ylamine] | 472 | 528 | 403 | 8440
Nc1ncc(-c2cnc3ccc(-c4ccc(OCCN5CCCC5=O)cc4)nn23)cc1C(F)(F)F [Example 97, 1-(2-{4-[3-(6-Amino-5-trifluoro-methyl-pyridin-3-yl)-imidazo [1,2-b]pyridazin-6-yl]-phenoxy}-ethyl)-pyrrolidin-2-one] | 75 | 1550 | 56 | 1020
Nc1ncc(-c2ccc3ncc(-c4ccc(C(=O)NCCN5CCS(=O)(=O)CC5)cc4)n3n2)cc1C(F)(F)F [Example 154, 4-[6-(6-Amino-5-trifluoro-methyl-pyridin-3-yl)-imidazo [1,2-b]pyridazin-3-yl]-N-[2-(1,1-dioxo-1lambda*6*- thio-morpholin-4-yl)-ethyl]-benzamide] | 5 | 71 | 6 | 267
Nc1ncc(-c2ccc3ncc(-c4ccc(C(=O)N5CCN(Cc6cccnc6)CC5)cc4)n3n2)cc1C(F)(F)F [Example 127, {4-[6-(6-Amino-5-trifluoro-methyl-pyridin-3-yl)-imidazo [1,2-b]pyridazin-3-yl]-phenyl}-(4-pyridin-3-ylmethyl-piperazin-1-yl)-methanone] | 19 | 416 | 59 | 1050
